These results are taken from patent publication US10849904B2, “Methods for treatment of retinal disease by photoreceptor gene expression modulation” (University of Washington, priority 2015, dated 2020).

Experiment [1] concerns rhodopsin promoter. In words: Dual luciferase rhodopsin promoter reporter assay in HEK293T cells. It is filed as cell-based. Conditions: 10 μM, 2 days. From the text: Nr2e3, Crx, and Nrl are known to activate rod gene expression by forming a complex at the promoters of rod genes. To test whether PR1 might interfere with this complex, a luciferase reporter assay was used. For this assay, the rhodopsin promoter driving firefly luciferase was co-transfected with Nrl, Nr2e3, or Crx or all of these transcription factors together into HEK293T cells. A large synergy in the activation of the rhodopsin reporter was found with the combination of these three transcription factors (FIG. 6G).
HEK293T cells were transfected with 1 μg of the luciferase reporter BR-225Luc, 1 ng of the control pRL-CMV (Promega) and 100 ng of hNRL-pCMVSport6 (Open Biosystems), hCRX-pCMVSport6 (Open Biosystems), or hNR2E3-pcDNA3.1/HisC in 24 well plates using Lipofectamine 3000 reagent (Thermo Fisher Scientific). Transfection reagents were removed the following day and replaced with media containing DMSO or 10 μM PR1 for 2 days. Cells were lysed and firefly and renilla luciferase activity was measured with the Dual-Luciferase Reporter Assay System (Promega) using a 1420 Multilabel Victor3V plate reader.
A general note: Reporter assays use an easily measured gene product as a stand-in for the process of interest.

The test system of experiment [2] is S opsin+ photoreceptors. In words: Injection of timed-pregnant dams at E14 and E17, S opsin+ photoreceptors in P0 pups. It is filed as in vivo, mouse. To be noted: dams injected 100 μl of 50 mM at E14 and E17, pups analysed at P0, vs controls. As for the experimental part: (§1) Nr2e3 is expressed in developing rods prior to birth, and so to test whether PR1 could affect prenatal rod development, wild type timed-pregnant dams were injected with 100 μl of 50 mM PR1 at E14 and E17, during peak S cone photoreceptor genesis and the onset of Nr2e3 expression (FIG. 7F). The pups were sacrificed at P0 and their retinas collected for staining and for quantifying S opsin+ photoreceptors. […] To determine if PR1 affected rhodopsin expression in developing rods in vivo, pups were injected with 20 μl of 50 mM PR1 or an equal volume of DMSO at P2 or P3 (FIG. 7I). The pups were sacrificed the following day and analyzed rhodopsin expression by qPCR.
Retinal explants or eyecups were fixed in 4% PFA in 1×PBS for 20 minutes at room temperature and then cryoprotected in 30% sucrose in 1×PBS overnight at 4° C. Samples were embedded in OCT (Sakura Finetek), frozen on dry ice, and then sectioned at 14-16 μm on a cryostat (Leica). Slides were blocked with a solution containing 10% Normal Horse Serum (Vector Labs) and 0.5% Triton X-100 (Sigma-Aldrich) in 1×PBS for 1 hour at room temperature and then stained overnight at 4° C. with primary antibodies diluted in blocking solution. […]

Experiment [3] has as its system rhodopsin. Put plainly: IP injection of P2 or P3 pups, rhodopsin expression by qPCR. It is filed as in vivo, mouse. Conditions: pups IP 20 μl of 50 mM at P2 or P3, sacrificed the following day, vs DMSO. The protocol:
as §1
(§2) RNA was isolated using TRIzol (Invitrogen) and cDNA was synthesized using the iScript cDNA synthesis kit (Bio-Rad) following an intervening DNase treatment with RQ1 RNase-free DNase (Promega). SSO Fast (Bio-Rad) was used for quantitative real-time PCR. For analysis, values were normalized to Gapdh and ΔΔCt between DMSO and compound-treated samples was expressed as percent of DMSO treated controls (100*2^ΔΔCt). Two-way Student's t-tests were performed on ΔCt values.
For intravitreal injections, adult mice (>P21) were anesthetized with isoflurane and injected with 1.5 μl of 10 mM PR1 using a 32-gauge Hamilton needle. […]
(In general: In qPCR the cycle at which signal appears reflects the starting amount.)

Experiment [4] has as its system retinas of adult mice. Put plainly: Intravitreal injection in adult mice, qPCR and Western blot. It is filed as in vivo, mouse.
From the text: Conditional deletion of Nr2e3 in mature photoreceptors has not been reported; however, deletion of Nrl in mature photoreceptors leads to a partial “reprogramming” of the rods: the cells have reduced rod gene expression and an increase in the expression of some cone genes. Because PR1 reduces rod gene expression, including Nrl, in rods even at late stages in their development (P12), it was postulated that PR1 might have similar effects in the retinas of adult mice. To determine if PR1 affects adult photoreceptor gene expression in vivo, intravitreal injections in one eye of an adult mouse (>P21) were made and compared expression to the other eye.
as §2
Retinal explants or retinas were homogenized in lysis buffer (50 mM Tris, 100 mM NaCl, 5 mM EDTA, 0.1% SDS, 1% Triton X-100, 2.5% glycerol, and 1× protease inhibitor cocktail) and equal amounts of protein samples were loaded and run in a 4-20% SDS gel (Bio-Rad). Protein was transferred to a PVDF membrane (Thermo Fisher Scientific), blocked (5% BSA and 0.1% Tween 20 in 1×PBS) and stained with primary antibodies (Supplemental Table S2) and then HRP-conjugated secondaries (Bio-Rad) diluted in blocking solution. Signals were visualized on X-ray film with SuperSignal West Dura Extended Duration Substrate (Thermo Fisher Scientific) and quantified using ImageJ software (NIH).
For intravitreal injections, adult mice (>P21) were anesthetized with isoflurane and injected with 1.5 μl of 10 mM PR1 using a 32-gauge Hamilton needle. Postnatal pups were injected intraperitoneally (IP) with 20 μl of 50 mM PR1 or 20 μl of DMSO at P2 or P3 with a 32-gauge Hamilton needle. Timed-pregnant dams were injected IP with 100 μl of 50 mM PR1 at E14 and E17 with a BD insulin syringe.

[5] abbreviates: adult mice (>P21), two intravitreal injections over four days, vs other eye.
Where [6] appears, read: adult retinas, intravitreal injection.

`Cc1cc(C)cc(NC(=O)CCc2nc3sc4c(c3c(=O)[nH]2)CCCC4)c1` [PR1, N-(3,5-dimethylphenyl)-3-(4-oxo-5,6,7,8-tetrahydro-3H-[1]benzothiolo[2,3-d]pyrimidin-2-yl)propanamide]: the “activation of the rhodopsin promoter reporter” value in experiment [1] (HEK293T transfected with Crx and Nrl) is listed as “large reduction”. Also, in experiment [1] (HEK293T transfected with Nr2e3, Crx and Nrl), the “activation of the rhodopsin promoter reporter” value is given as “large reduction”. Besides, the “number of S opsin-positive cells in pups” value in experiment [2] is “increase in the number of S opsin-positive cells”. The “rhodopsin expression by qPCR” value in experiment [3] is listed as “decreased rhodopsin”. Further, in experiment [4] (setting [5]), the “Rho mRNA expression by qPCR” value is on record as “decreased” and the “rhodopsin protein by Western blot” value is “decreased”. Moreover, in experiment [4] (setting [6]), the S opsin entry is reported as “not observed” and the “expression of the cone photoreceptor marker TRβ2” value is recorded as “increased”.
